The values that follow are results of earlier work, collected in patent publication US20120289594A1, “ORAL DOSAGE FORM” (Orion Corporation, priority 2005, published 2012).

For series [1] the following is noted: background statement.
The conditions of series [2]: background statement. This is another data set of the same source.

Turning to `CCN(CC)C(=O)/C(C#N)=C/c1cc(O)c(O)c([N+](=O)[O-])c1` [Entacapone, (E)-2-cyano-3-(3,4-dihydroxy-5-nitrophenyl)-N-diethyl-2 propenamide], in series [1], the water solubility entry was “very low”. In addition, the “absorption in the gastrointestinal tract” value in series [2] is listed as “quickly absorbed”.
